Results: ChEMBL document CHEMBL1132466, “Asymmetric synthesis of 9-alkyl-2-benzyl-6,7-benzomorphans: characterization as novel sigma receptor ligands” (J Med Chem, 1999)

Test: Affinity against Sigma opioid receptor type 1 using [3H](+)-pentazocine in guinea pig brain membranes

## C[C@@H]1[C@@H]2Cc3ccc(O)cc3[C@@]1(C)CCN2Cc1ccccc1
  Ki: 0.67 nM
